What all share (format): cell-based
One test deals with T1, CDK2 (Homo sapiens, UniProt P24941).
T1 construct: host or cells: HEK293
In words: CDK2 HIBIT PQ (protein quantification), degradation. The settings on record: for CDK2 HIBIT PQ Max (%): Max = Maximum; for DC50: PQ = Protein Quantification. The gist of the method:
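Maximal degradation and DC50 were obtained from luminescence readings of HEK293 cells expressing HiBiT-tagged CDK2. The cells, grown in DMEM with 10% FBS, were seeded at 1.6×10^5 cells/well in 50 uL in 384-well plates and incubated overnight at 37° C and 5% CO2 before 6 hours of compound treatment. HiBiT reagent (Nano-Glo HiBiT lytic buffer, lytic substrate, LgBiT protein) was then added at 20 μL, and plates were shaken for 20 minutes at room temperature before reading on an EnVision, against a high control of 0.1% DMSO and a low control of medium only.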

The target in another test is T2, CDK9 (Homo sapiens, UniProt P50750).
T2 construct: host or cells: HEK293
In words: CDK9 HIBIT PQ (protein quantification), degradation. The settings on record: for Dmax: Max = Maximum; for DC50: PQ = Protein Quantification. The gist of the method:
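Maximal degradation, Dmax and DC50 come from HiBiT assay readings of CDK9 protein in compound-treated HEK293 cells that express HiBiT-tagged CDK9. The cells were grown in DMEM with 10% FBS and seeded at 1.6×10^5 cells/well in 50 uL in 384-well plates before overnight incubation at 37° C and 5% CO2. Cells treated with 0.1% DMSO set the high control, and medium only set the low control.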

Another test deals with T3, CCNE1 (Homo sapiens, UniProt P24864+P24941).
T3 construct: host or cells: HEK293
The test can be described thus: CCNE1 HIBIT PQ (protein quantification), degradation. The settings on record: for CCNE1 HIBIT PQ Max (%): Max = Maximum; for DC50: PQ = Protein Quantification. The gist of the method:
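For DC50 and maximal degradation, CCNE1 protein was quantified with a HiBiT assay in HEK293 cells carrying HiBiT-tagged CCNE1. Cells in EMEM with 10% FBS went into 384-well plates at 1.6×10⁵ cells/well in 50 uL, stayed overnight at 37° C and 5% CO₂, and then received compound for 6 hours. Readings were referenced to 0.1% DMSO-treated cells as the high control and culture medium only as the low control.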

Experimental findings from US20260062426A1, “CYCLIN DEPENDENT KINASE DEGRADERS AND METHODS OF USE THEREOF” (Differentiated Therapeutics Inc, priority 2023, published 2026) are described below.

The structures appear in SMILES notation.

By DC50 is commonly meant the midpoint of the concentration-degradation curve. As a reminder, the Dmax is the greatest extent of degradation seen.

T2 sequence (P50750 whole entry): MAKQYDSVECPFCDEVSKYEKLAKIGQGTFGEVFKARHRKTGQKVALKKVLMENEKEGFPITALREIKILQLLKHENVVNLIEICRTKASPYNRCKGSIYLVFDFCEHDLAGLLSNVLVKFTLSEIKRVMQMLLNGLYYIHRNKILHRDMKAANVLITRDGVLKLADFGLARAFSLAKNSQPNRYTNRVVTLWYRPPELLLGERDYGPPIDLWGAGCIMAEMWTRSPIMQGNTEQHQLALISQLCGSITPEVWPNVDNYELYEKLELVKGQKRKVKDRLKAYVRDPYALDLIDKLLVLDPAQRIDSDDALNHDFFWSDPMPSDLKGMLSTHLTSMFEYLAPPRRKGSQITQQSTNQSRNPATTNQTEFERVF

For `CC(C)Oc1c(-c2cn[nH]c2)ncn2nc(NC3CCN(S(=O)(=O)c4cccc(CN5CC(c6ccc7c(c6)CN(C6CCC(=O)NC6=O)C7=O)C5)c4)CC3)nc12` (racemic) [Compound 4], at CDK2, the “CDK2 HIBIT PQ Max (%)” value is recorded as 63% and half-maximal degradation (DC50) was put at 4.14 nM. On CDK9, this compound showed a Dmax of 4%. At CCNE1, the “CCNE1 HIBIT PQ Max (%)” value came to 65% and the DC50 amounted to 7.1 nM.

For `CC(C)Oc1c(-c2cn[nH]c2)ncn2nc(Nc3ccc(S(=O)(=O)c4cccc(C(C)N5CCC(c6ccc7c(N8CCC(=O)NC8=O)nn(C)c7c6)CC5)c4)cc3F)nc12` (racemic) [Compound 85], at CDK2, the “CDK2 HIBIT PQ Max (%)” value worked out at 93% and half-maximal degradation (DC50) was put at 1.5 nM. For the same compound, at CDK9, the Dmax came to 82% and the DC50 is 12 nM. In addition, at CCNE1, the “CCNE1 HIBIT PQ Max (%)” value is listed as 80% and it took 9.64 nM to reach half-maximal degradation (DC50).

As for `CCC1CN(c2ccc3c(N4CCC(=O)NC4=O)nn(C)c3c2)CCN1Cc1cccc(S(=O)(=O)N2CC[C@H](Nc3nc4c(OC(C)C)c(-c5cn[nH]c5)ncn4n3)[C@H](C)C2)c1` (stereo partly shown) [Compound 50], on CDK2, the “CDK2 HIBIT PQ Max (%)” value is recorded as 97% and the DC50 came to 2.8 nM. In addition, at CDK9, the maximal degradation (Dmax) came out at 96% and the DC50 was found to be 23.5 nM. Besides, on CCNE1, the “CCNE1 HIBIT PQ Max (%)” value is 90% and the DC50 is 15.2 nM.

With `CC(C)Oc1c(-c2cn[nH]c2)ncn2nc(Nc3ccc(S(=O)(=O)c4cccc(C(C)N5CCN(c6ccc7c(N8CCC(=O)NC8=O)nn(C)c7c6)CC5)c4)cc3F)nc12` (single isomer, unassigned) [Compound 98], at CDK2, the “CDK2 HIBIT PQ Max (%)” value was 95% and it took 2.3 nM to reach half-maximal degradation (DC50). At CDK9, this compound showed a Dmax of 78% and a DC50 of 34.8 nM. In addition, at CCNE1, the “CCNE1 HIBIT PQ Max (%)” value is 67% and it took 12.7 nM to reach half-maximal degradation (DC50).

As for `CC(C)Oc1c(-c2cn[nH]c2)ncn2nc(Nc3ccc(S(=O)(=O)c4cccc(C[C@H]5C[C@@H](c6ccc7c(c6)CN([C@@H]6CCC(=O)NC6=O)C7=O)C5)c4)cc3F)nc12` (stereo in doubt) [Compound 79, (R)-3-(5-((1r,3S)-3-(3-((3-fluoro-4-((8-isopropoxy-7-(1H-pyrazol-4-yl)-[1,2,4]triazolo[1,5-c]pyrimidin-2-yl)amino)phenyl)sulfonyl)benzyl)cyclobutyl)-1-oxoisoindolin-2-yl)piperidine-2,6-dione], on CDK2, the “CDK2 HIBIT PQ Max (%)” value is on record as 96% and the 50% degradation concentration (DC50) was 5.9 nM. Moreover, the Dmax at CDK9 stood at 26%. For the same compound, on CCNE1, the “CCNE1 HIBIT PQ Max (%)” value is 84% and the DC50 came out at 13.1 nM.

For `CC(C)Oc1c(-c2cn[nH]c2)ncn2nc(Nc3ccc(S(=O)(=O)c4cccc(C[C@H]5C[C@@H](c6ccc7c(N8CCC(=O)NC8=O)nn(C)c7c6)C5)c4)cc3F)nc12` [Compound 90, rel-1-(6-((1r,3s)-3-(3-((3-fluoro-4-((8-isopropoxy-7-(1H-pyrazol-4-yl)-[1,2,4]triazolo[1,5-c]pyrimidin-2-yl)amino)phenyl)sulfonyl)benzyl)cyclobutyl)-1-methyl-1H-indazol-3-yl)dihydropyrimidine-2,4(1H,3H)-dione], at CDK2, the “CDK2 HIBIT PQ Max (%)” value is 91% and it took 14.3 nM to reach half-maximal degradation (DC50). At CDK9, the Dmax stood at 14%. The “CCNE1 HIBIT PQ Max (%)” value on CCNE1 was found to be 48%.

`CC(C)Oc1c(-c2cn[nH]c2)ncn2nc(Nc3ccc(S(=O)(=O)c4cccc(N5CCC(CN6CCN(c7ccc8c(c7)CN(C7CCC(=O)NC7=O)C8=O)CC6)CC5)c4)cc3F)nc12` (racemic) [Compound 22]: on CDK2, the “CDK2 HIBIT PQ Max (%)” value came to 93% and it took 1.7 nM to reach half-maximal degradation (DC50). At CDK9, this compound yielded a Dmax of 97% and a DC50 of 16.1 nM. Besides, at CCNE1, the “CCNE1 HIBIT PQ Max (%)” value came out at 71% and the DC50 was determined as 10.9 nM.

With `CC(C)Oc1c(-c2cn[nH]c2)ncn2nc(Nc3ccc(S(=O)(=O)c4cccc(N5CCC6C5CN6c5ccc6c(c5)CN(C5CCC(=O)NC5=O)C6=O)c4)cc3F)nc12` (stereo not shown) [Compound 34, 3-(5-{2-[3-(3-fluoro-4-{[8-isopropoxy-7-(1H-pyrazol-4-yl)-[1,2,4]triazolo[1,5-c]pyrimidin-2-yl]amino}benzenesulfonyl)phenyl]-2,6-diazabicyclo[3.2.0]heptan-6-yl}-1-oxo-3H-isoindol-2-yl)piperidine-2,6-dione], at CDK2, the “CDK2 HIBIT PQ Max (%)” value was 86% and half-maximal degradation (DC50) was put at 5.6 nM. Also, on CDK9, the Dmax was determined as 31%. On CCNE1, the “CCNE1 HIBIT PQ Max (%)” value amounted to 62% and the 50% degradation concentration (DC50) was 14.1 nM.

Turning to `CC(C)Oc1c(-c2cn[nH]c2)ncn2nc(Nc3ccc(S(=O)(=O)N4CCC[C@H](CN5CC[C@@H](c6ccc7c(N8CCC(=O)NC8=O)nn(C)c7c6)CC5(C)C)C4)cc3F)nc12` (single isomer, unassigned) [Compound 96], on CDK2, the “CDK2 HIBIT PQ Max (%)” value is reported as 87% and it took 1 nM to reach half-maximal degradation (DC50). On CDK9, this compound came in with a Dmax of 80% and a DC50 of 8.05 nM. On CCNE1, the “CCNE1 HIBIT PQ Max (%)” value was 75% and it took 3.16 nM to reach half-maximal degradation (DC50).

On to `CC(C)Oc1c(-c2cn[nH]c2)ncn2nc(Nc3ccc(S(=O)(=O)N4CCC5(CCN(C6CCN(c7ccc8c(c7)n(C)c(=O)n8C7CCC(=O)NC7=O)CC6)C5)C4)cc3F)nc12` (stereo not shown) [Compound 36], for which, on CDK2, the “CDK2 HIBIT PQ Max (%)” value is reported as 89% and the DC50 came out at 2.9 nM. On CDK9, this compound gave a Dmax of 87% and a DC50 of 57.6 nM. Also, on CCNE1, the “CCNE1 HIBIT PQ Max (%)” value came to 63% and the DC50 amounted to 22.1 nM.

With `CC(C)Oc1c(-c2cn[nH]c2)ncn2nc(Nc3ccc(S(=O)(=O)N(C)CCCN4CCC(c5ccc6c(c5)n(C)c(=O)n6C5CCC(=O)NC5=O)CC4)c4ccoc34)nc12` (racemic) [Compound 53], at CDK2, the “CDK2 HIBIT PQ Max (%)” value was 87% and half-maximal degradation (DC50) was put at 0.2 nM. On CDK9, this compound returned a Dmax of 67% and a DC50 of 2.64 nM. On CCNE1, the “CCNE1 HIBIT PQ Max (%)” value was 61% and it took 0.74 nM to reach half-maximal degradation (DC50).

Turning to `CC(C)Oc1c(-c2cn[nH]c2)ncn2nc(Nc3ccc(S(=O)(=O)c4cccc(CC5CC(c6ccc7c(c6)n(C)c(=O)n7[C@H]6CCC(=O)NC6=O)C5)c4)cc3F)nc12` (mixture of isomers) [Compound 31, (3S)-3-[5-(3-{[3-(3-fluoro-4-{[8-isopropoxy-7-(1H-pyrazol-4-yl)-[1,2,4]triazolo[1,5-c]pyrimidin-2-yl]amino}benzenesulfonyl)phenyl]methyl}cyclobutyl)-3-methyl-2-oxo-1,3-benzodiazol-1-yl]piperidine-2,6-dione], at CDK2, the “CDK2 HIBIT PQ Max (%)” value came out at 81% and the DC50 worked out at 1.7 nM. Further, the Dmax at CDK9 came out at 9%. For the same compound, the “CCNE1 HIBIT PQ Max (%)” value at CCNE1 is 26%.

In the case of `CC(C)Oc1c(-c2cn[nH]c2)ncn2nc(Nc3ccc(S(=O)(=O)N4CCCC(CN5CCC(c6ccc7c(N8CCC(=O)NC8=O)nn(C)c7c6)CC5)C4)cc3F)nc12` (single isomer, unassigned) [Compound 94], at CDK2, the “CDK2 HIBIT PQ Max (%)” value is 92% and the DC50 was 0.3 nM. At CDK9, this compound showed a Dmax of 88% and a DC50 of 5.2 nM. At CCNE1, the “CCNE1 HIBIT PQ Max (%)” value is reported as 89% and it took 1.55 nM to reach half-maximal degradation (DC50).

Consider `CC(C)Oc1c(-c2cn[nH]c2)ncn2nc(Nc3ccc(S(=O)(=O)N4CCC5(CCCN5C5CCN(c6ccc7c(c6)n(C)c(=O)n7C6CCC(=O)NC6=O)CC5)C4)cc3F)nc12` (stereo not shown) [Compound 37], for which, at CDK2, the “CDK2 HIBIT PQ Max (%)” value worked out at 84% and the half-maximal degradation concentration (DC50) came out at 2.9 nM. On CDK9, this compound came in with a Dmax of 51% and a DC50 of 43.7 nM. Moreover, the “CCNE1 HIBIT PQ Max (%)” value at CCNE1 came out at 30%.
